Experimental data reported in US12138140B2, “Wound covering for wound monitoring and therapeutic agent delivery” (UVic Industry Partnerships Inc., priority 2017, dated 2024).

Key:
[1] = dehydration test (weight loss over time); format: physicochemical; conditions: glycerol added to alginate
Method: One of the main advantages of using hydrogels as a substrate for wound dressings is their ability to retain moisture at the wound site. However, hydrogels may be prone to rapid dehydration, which can compromise the integrity of the dressing and ultimately affect its functionality. Rapid dehydration of the hydrogels can pose a challenge for the clinical application of gel-based dressings. The dehydration rate of the dermal patch was evaluated by measuring its weight loss at 37° C. and it was observed that the alginate patch was completely dehydrated in less than 10 hr (FIG. 26A). Influential parameters on dehydration rates including alginate concentration and dressing thickness were altered for these experiments. […]
The effect of Mepitel® on the dehydration rate of the hydrogel dressing was studied. Dressings with 2% w/v alginate were covered by Mepitel® and their weight were measured in 24 hr. […]
Dehydration and hydration tests: Square gel sheets (15 mm×15 mm) made of two different concentrations of alginate (2% and 6% w/v) and two different thicknesses (1.5 mm and 3 mm) were fabricated by crosslinking with agarose sheets containing CaCl2 similar to preparation of the patches. […] The weight was then recorded during definite time intervals for 3 hours and the degree of swelling was then obtained by determining the gained weight for each sample.

P. aeruginosa = assay: semi quantitative bacteria inhibition assay of drug-eluting scaffolds on agar plate; format: cell-based, Pseudomonas aeruginosa; conditions: 3 mg/ml dosage
Method: To examine the antibacterial effectiveness of the drug-eluting scaffolds, a semi quantitative bacteria inhibition assay was performed using P. aeruginosa. […] Scaffolds with no drugs and filter paper impregnated with the same amount of drugs were used as negative and positive controls, respectively. Gentamicin is widely used as an effective antibiotic agent against a wide range of Gram-negative and Gram-positive bacteria, including P. aeruginosa (25-27). […] The observed white ring around the scaffold within the inhibited zone was suspected to be infected by the bacteria. Therefore, we collected swab samples from three different zones near the scaffold (point 1), in the white region (point 2), and at the edge of the ring (point 3), then plated the samples overnight on another agar plate. […] The formation of the white ring around the scaffold can be attributed to the interaction of the phosphate ions in the agar and calcium ions that were releasing from the calcium alginate scaffolds.
Bacteria viability loss assay: Drug-eluting scaffolds were embedded in alginate patches as described previously; patches were then placed on top of a Tryptic soy agar (TSA, Sigma-Aldrich) plate on which Pseudomonas aeruginosa bacteria were spread and the effect of the antimicrobial was investigated after incubation at 37° C. for 18 hr.

[2] = antibacterial efficiency of UV-sterilized gentamicin versus drug not treated with UV; format: cell-based; conditions: UV 365 nm, 200 mW/cm^2
From the text: In a representative example, multifunctional dressings were made according to the embodiments described herein comprising an array of porous color-changing pH sensors (e.g., the sensing elements 14) and drug-eluting scaffolds (e.g., the therapeutic agent delivery elements 16), which were embedded within an alginate dressing (FIG. 16A). The array of porous sensors (each sensor was 12×12 mm in size) comprised three-dimensionally (3D)-printed color-changing alginate fibers that were loaded with mesoporous resin beads doped with a pH-responsive dye (FIGS. 16A-16G). Alginate is a naturally-derived polysaccharide that can be used as a dressing material for epidermal applications due to its biocompatibility, hemostatic properties, and non-adhesive characteristics that facilitate the removal of the dressing without trauma and pain (14-18). With reference to FIG. 6A and FIGS. 16B and 16C, to print the sensors, a microextruder 60 comprising two coaxial needles 62 and 64 (FIG. 16C and FIGS. 22A-22B) mounted on a 3D printer (e.g., a Prusa i3) was used. The porosity of the sensors was adjusted by changing the diameter of the fibers while keeping the spacing between fibers constant. Encapsulation of the beads within the hydrogel fibers prevented the beads from dispersing in the wound area while providing a biocompatible interface with the wound site. […]

Row | Molecule | reduction of dehydration rate [1] | effectiveness of topical delivery in the in vitro inhibition assay (P. aeruginosa) | impact of UV exposure on antibacterial efficiency of the drug [2]
1 | OCC(O)CO [glycerol] | 30% |  | 
2 | gentamicin sulfate |  | demonstrated the effectiveness | no impact
